Patent publication US5739111A, “Modulating body/cranial hair growth with derivatives of the α-type melanocyte-stimulating hormone” (Societe L'Oreal S.A., priority 1995, dated 1998)
Where a SMILES comes first, the peptide text is derived from it.

System: hair follicles
Assay: lengthening and survival of hair follicles maintained in vitro
Format: cell-based
Set-up: Mean lengthening: unit not given here
Method: Viable in vitro hair follicles were prepared according to the technique described in French Patent Application No. 95-08465, filed July 12, 1995 and assigned to the assignee hereof.
From a scalp biopsy, a rather fine strip of scalp was isolated using a scalpel. The adipose tissue surrounding the follicles was removed with microforceps while avoiding damage to the hair bulb. The follicles were cut out with a scalpel under a microscope in order to separate them from their epidermal and dermal surroundings.
The follicles were then cultured in the wells of Costar-type 24-well plates, at the rate of one follicle per well. Each well contained 0.5 ml of Williams' medium E, to which had been added penicillin and Streptomycin to a final concentration of 50 IU/ml, glutamine to 2 mM, bovine insulin to 0.01 mg/ml and hydrocortisone to 0.04 mg/ml.
The follicles were then measured using a microscope equipped with a micrometric eyepiece.
After 24 hours, the follicles were again measured and those which had lengthened by less than 0.3 divisions of the micrometer, corresponding to 0.16 mm, were discarded.
The five (5) following culturing conditions were tested:
Condition A: Complete Williams' medium E, without peptide.
Condition B: Complete Williams' medium E+10 mM Ac-LPV-NH2.
Condition C: Complete Williams' medium E+1 mM Ac-LPV-N2.
Condition D: Complete Williams' medium E+0.1 mM Ac-LPV-NH2.

[1] = summary in words, versus medium without peptide

CC(=O)N[C@@H](CCCCN)C(=O)N1CCC[C@H]1C(=O)N[C@H](C(N)=O)C(C)C [Acetyl-Lys-Pro-Val-NH2] (Ac-Lys-Pro-Val-NH2)
Mean lengthening (1 mM (Conditions C, E) in complete Williams' medium E, day 0): 0.00 | % Survival (1 mM (Conditions C, E), day 0): 100% | % Survival (1 mM (Conditions C, E), day 1): 100% | Mean lengthening (1 mM (Conditions C, E), day 1): 0.38 | % Survival (1 mM (Conditions C, E), day 4): 100% | Mean lengthening (1 mM (Conditions C, E), day 4): 1.05 | % Survival (1 mM (Conditions C, E), day 5): 100% | Mean lengthening (1 mM (Conditions C, E), day 5): 1.21 | % Survival (1 mM (Conditions C, E), day 6): 100% | Mean lengthening (1 mM (Conditions C, E), day 6): 1.28 | % Survival (1 mM (Conditions C, E), day 7): 91% | Mean lengthening (1 mM (Conditions C, E), day 7): 1.42 | % Survival (1 mM (Conditions C, E), day 8): 55% | Mean lengthening (1 mM (Conditions C, E), day 8): 1.39 | % Survival (1 mM (Conditions C, E), day 11): 36% | Mean lengthening (1 mM (Conditions C, E), day 11): 1.70 | Mean lengthening (Condition B, 10 mM in complete Williams' medium E, day 0): 0.00 | % Survival (Condition B, 10 mM, day 0): 100% | % Survival (Condition B, 10 mM, day 1): 100% | Mean lengthening (Condition B, 10 mM, day 1): 0.38 | % Survival (Condition B, 10 mM, day 4): 100% | Mean lengthening (Condition B, 10 mM, day 4): 1.11 | % Survival (Condition B, 10 mM, day 5): 100% | Mean lengthening (Condition B, 10 mM, day 5): 1.33 | % Survival (Condition B, 10 mM, day 6): 100% | Mean lengthening (Condition B, 10 mM, day 6): 1.43 | % Survival (Condition B, 10 mM, day 7): 100% | Mean lengthening (Condition B, 10 mM, day 7): 1.54 | % Survival (Condition B, 10 mM, day 8): 92% | Mean lengthening (Condition B, 10 mM, day 8): 1.74 | % Survival (Condition B, 10 mM, day 11): 83% | Mean lengthening (Condition B, 10 mM, day 11): 1.96 | % Survival (Condition B, 10 mM, day 12): 42% | Mean lengthening (Condition B, 10 mM, day 12): 2.40 | Mean lengthening (Condition D, 0.1 mM in complete Williams' medium E, day 0): 0.00 | % Survival (Condition D, 0.1 mM, day 0): 100% | % Survival (Condition D, 0.1 mM, day 1): 100% | Mean lengthening (Condition D, 0.1 mM, day 1): 0.37 | % Survival (Condition D, 0.1 mM, day 4): 100% | Mean lengthening (Condition D, 0.1 mM, day 4): 1.10 | % Survival (Condition D, 0.1 mM, day 5): 100% | Mean lengthening (Condition D, 0.1 mM, day 5): 1.22 | % Survival (Condition D, 0.1 mM, day 6): 100% | Mean lengthening (Condition D, 0.1 mM, day 6): 1.28 | % Survival (Condition D, 0.1 mM, day 7): 83% | Mean lengthening (Condition D, 0.1 mM, day 7): 1.42 | % Survival (Condition D, 0.1 mM, day 8): 50% | Mean lengthening (Condition D, 0.1 mM, day 8): 1.58 | % Survival (Condition D, 0.1 mM, day 11): 42% | Mean lengthening (Condition D, 0.1 mM, day 11): 2.08 | % Survival (Condition D, 0.1 mM, day 12): 17% | Mean lengthening (Condition D, 0.1 mM, day 12): 2.11 | effect on lengthening of the cultured hair follicles [1]: promoted the lengthening | effect on survival time of the cultured hair follicles [1]: increased their survival time
